Data on 2 molecules can be found in ChEMBL document CHEMBL4811216, “Chemotherapy for human schistosomiasis: how far have we come? What's new? Where do we go from here?” (RSC Med Chem, 2020).

The target of test [1] is T1, Thioredoxin glutathione reductase (Schistosoma mansoni, UniProt Q962Y6).
T1 sequence (Q962Y6 whole entry): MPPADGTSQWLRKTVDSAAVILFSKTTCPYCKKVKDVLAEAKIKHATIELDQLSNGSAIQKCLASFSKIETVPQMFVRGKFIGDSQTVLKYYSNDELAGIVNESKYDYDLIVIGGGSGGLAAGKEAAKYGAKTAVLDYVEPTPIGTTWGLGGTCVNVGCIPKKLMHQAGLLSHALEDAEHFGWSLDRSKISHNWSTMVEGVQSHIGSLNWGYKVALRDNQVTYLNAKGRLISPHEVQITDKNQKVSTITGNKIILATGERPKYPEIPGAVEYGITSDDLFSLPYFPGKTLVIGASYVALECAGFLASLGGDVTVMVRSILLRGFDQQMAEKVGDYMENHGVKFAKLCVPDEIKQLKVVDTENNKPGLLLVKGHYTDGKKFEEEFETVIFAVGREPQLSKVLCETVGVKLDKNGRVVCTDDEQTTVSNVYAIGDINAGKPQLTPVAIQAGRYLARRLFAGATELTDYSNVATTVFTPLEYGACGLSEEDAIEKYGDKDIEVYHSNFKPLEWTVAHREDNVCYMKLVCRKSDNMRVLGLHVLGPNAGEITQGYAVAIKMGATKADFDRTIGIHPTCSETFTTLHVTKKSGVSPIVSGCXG
As to the kind of experiment: Inhibition of Schistosoma mansoni thioredoxin glutathione reductase incubated for 30 mins by DTNB assay.

The test system of test [2] is Schistosoma mansoni. As to the kind of experiment: Antischistosomal activity against adult Schistosoma mansoni assessed as worm death at 12.5 uM incubated for 120 hrs relative to control. The class given is functional.
Test [3] has as its system Schistosoma mansoni. As to the kind of experiment: Antischistosomal activity against Schistosoma mansoni Schistosomula assessed as worm death at 12.5 uM incubated for 120 hrs relative to control. The format is functional.
Test [4] has as its system Schistosoma mansoni. Description: Antischistosomal activity against juvenile Schistosoma mansoni assessed as worm death at 12.5 uM incubated for 120 hrs relative to control. The format is functional.
The test system of test [5] is Schistosoma japonicum. Description: Antischistosomal activity against adult Schistosoma japonicum assessed as worm death at 12.5 uM incubated for 120 hrs relative to control. The format is functional.
The test system of test [6] is Schistosoma mansoni. Description: Antischistosomal activity against Schistosoma mansoni BH assessed as reduction in motor activity at 25 uM measured after 24 hrs by light microscopy relative to control. The format is functional. Set-up: scale not given: the % may be the effect or the level left.
In test [7] the test system is Schistosoma mansoni. Description: Antischistosomal activity against Schistosoma mansoni BH assessed as extensive tegumental alteration at 25 uM measured after 24 hrs by light microscopy relative to control. The format is functional.
For test [8], the target named is T2, ATP-diphosphohydrolase 1 (Schistosoma mansoni) (UniProt Q7YTA4).
T2 sequence (whole entry): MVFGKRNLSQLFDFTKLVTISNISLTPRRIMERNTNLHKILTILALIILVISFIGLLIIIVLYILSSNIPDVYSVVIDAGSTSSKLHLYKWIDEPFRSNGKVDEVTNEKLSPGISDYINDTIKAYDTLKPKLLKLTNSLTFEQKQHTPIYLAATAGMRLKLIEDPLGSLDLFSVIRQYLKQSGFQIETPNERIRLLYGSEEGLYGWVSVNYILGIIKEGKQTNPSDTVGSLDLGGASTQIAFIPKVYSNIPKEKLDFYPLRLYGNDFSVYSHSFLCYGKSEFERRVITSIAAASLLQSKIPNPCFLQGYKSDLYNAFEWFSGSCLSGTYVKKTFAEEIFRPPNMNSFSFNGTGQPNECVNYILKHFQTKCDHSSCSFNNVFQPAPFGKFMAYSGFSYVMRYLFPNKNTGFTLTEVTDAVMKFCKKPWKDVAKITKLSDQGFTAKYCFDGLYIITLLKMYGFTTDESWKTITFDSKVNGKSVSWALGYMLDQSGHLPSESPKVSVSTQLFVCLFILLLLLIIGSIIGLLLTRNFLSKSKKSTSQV
As to the kind of experiment: Inhibition of Schistosoma mansoni ATPDase1 at 40 uM preincubated for 30 mins followed by addition of ATP/ADP by spectrophotometric method relative to control.

Test [9] has as its target T3, ATP-diphosphohydrolase 1 (Schistosoma mansoni, UniProt Q7YTA4).
T3 sequence (Q7YTA4 whole entry): T2 sequence (whole entry)
Description: Inhibition of Schistosoma mansoni ATPDase1 preincubated for 30 mins followed by addition of ATP/ADP by spectrophotometric method.

The term IC50 denotes the concentration that inhibits the measured activity by half. For orientation: mortality means the share of the test organisms that died. As for `CCOC(=O)C(C(=O)OCC)C1=C(Br)C2=NOC3c4ccccc4C(=O)C(=C1)C23` (centres undefined), the IC50 in test [1] turned out to be 0.14 µM. In addition, the mortality at 12.5 µM in [2] amounted to 28%; in test [3], 96%; in [4], 100%; in [5] it was 100%.
The inhibition is the drop in the measured response relative to a control, in per cent. Consider `COc1cc(O)cc(O)c1C(=O)/C=C/c1ccccc1` [CARDAMOMIN], for which the Activity in test [6] and in test [7] was 100% each time. Moreover, the inhibition in test [8] was 82%. Besides, in test [9], the IC50 is 23.5 µM.
